Measured values: patent US9101161B2, “High-potency sweetener composition with phytoestrogen and compositions sweetened therewith” (The Coca-Cola Company, priority 2006, dated 2015)

Tests used:
[1] = Sensory evaluation of sweetness linger, Example Set G (REBA in citric acid/potassium citrate composition); type: in vivo; set-up: key: 0=no sweetness linger; 1=very slight sweetness linger; 2=slight sweetness linger; 3=moderate sweetness linger; 4=moderately high sweetness linger; 5 high sweetness linger; conditions: for sweetness linger: 400 ppm REBA in citric acid/potassium citrate composition equivalent to diet lemon-lime beverage, plus additive, expert panel, scale 0-5, sweetness 3-4 min after water rinse; for Sweetness Linger rating defined for controls: defined by the protocol, sucrose, 500 ppm REBA control sample
Experimental: Sensory evaluation of the samples prepared in Example Set G was carried out under the following protocol, similar to that described hereinabove. In this test protocol, none of the samples were swallowed. All samples were expectorated and the mouth was rinsed with water after the tasting, Immediately upon sensing maximal sweetness, the sample was expectorated, the mouth was rinsed with water and the rate of sweetness decay (“Sweetness Linger”) was measured, where attention was focused on the sweetness 3-4 min after the water rinse. After sample tasting was complete, a salty oyster cracker was chewed followed by a water rinse, and at least 5 minutes followed before tasting the next sample. The sweetness linger was rated by a panel of experts in the sensory evaluation of foods and beverages using the following scale: 0=no sweetness linger, 1=very slight sweetness linger, 2=slight sweetness linger, 3=moderate sweetness linger, 4=moderately high sweetness linger, 5 high sweetness linger.
The “Sweetness Linger” rating for sucrose observed by this protocol is defined as 0. The Sweetness Linger of a 500 ppm of REBA control sample is defined as 5. Experimental samples were tasted by the same protocol, always allowing sufficient time between samples to ensure re-equilibration of the sensory system. Re-tasting of control samples during the course of the experiment was allowed and encouraged.
The comparison taste test was performed between two controls and addition of sweet taste improving additive on the onset and/or sweetness linger.
The effects of formulation change on the sweetness linger of 400 ppm REBA (equivalent to 8 g sucrose) in a citric acid/potassium citrate composition equivalent to that in a diet lemon-lime beverage were evaluated. The sweetness linger rating of this solution was determined to be 5.
8 g of sugar was dissolved in 100 ml of citrate buffer. The sweetness linger rating of this control sample was determined to be 0.

[2] = Sensory evaluation of sweetness linger, Example Set H (REBA in phosphoric acid solution pH 2.4-2.5); type: in vivo; set-up: key: 0=no sweetness linger; 1=very slight sweetness linger; 2=slight sweetness linger; 3=moderate sweetness linger; 4=moderately high sweetness linger; 5 high sweetness linger; conditions: 500 ppm REBA (H41: 360 ppm) in carbon-treated water, phosphoric acid (75%) to pH 2.4-2.5, plus additive; scale 0-5
[3] = Sweetness level as sucrose equivalent; conditions: 400 ppm REBA
[4] = Rate of dissolution in H2O at 25° C. of rebaudioside A polymorph and amorphous forms; type: physicochemical
[5] = type: physicochemical
Experimental: A solution of rebaudioside A (>97% pure by HPLC) was prepared in double distilled water (12.5 gm in 50 mL, 25% concentration) by stirring the mixture at 40° C. for 5 minutes. An amorphous form of rebaudioside A was formed by immediately using the clear solution for spray drying with the Lab-Plant spray drier SD-04 instrument (Lab-Plant Ltd., West Yorkshire, U.K.). The solution was fed through the feed pump into the nozzle atomizer which atomized it into a spray of droplets with the help of a constant flow of nitrogen/air. […] This dry powder (11-12 g, H2O, 6.74%) was discharged continuously from the drying chamber and was collected in a bottle.

Compound	sweetness linger [1]	Sweetness Linger rating defined for controls [1]	sweetness linger [2]	sucrose equivalent [3] [g sucrose]	Rate of dissolution in H2O at 25° C. ([4]; H2O, 25° C.)	Rate of dissolution in H2O at 25° C. ([4]; grade in words)	solubility in water at room temperature [5] [%]
OC[C@H]1O[C@@](CO)(O[C@H]2O[C@H](CO)[C@@H](O)[C@H](O)[C@H]2O)[C@@H](O)[C@@H]1O [sucrose]	0	0	0				
rebaudioside A	5	5	5	8			
rebaudioside A [Form 1]					(<0.2%/60 %/60 minutes	Very low	
rebaudioside A [Form 2]					(<30%/5 %/5 minutes	Intermediate	
rebaudioside A [Form 3]					> 30 %/5 minutes	High	
rebaudioside A [Form 4]					> 35 %/5 minutes	High	> 35.0
